Values joined by “and” are separate entries in the source; they are usually repeats but may differ in a detail not shown here. Equal entries are not always repeated. “Also recorded” adds a separate entry of the source. Where two headings read alike, the source gives them in different places. Bounds are passed on as bounds.

The values below come from patent US20240197766A1, “TREATMENT OF RNA VIRUS INFECTION WITH A CYTIDINE” (The Cleveland Clinic Foundation, priority 2021, published 2024).

In data set [1] the test system is coronavirus. It is filed as cell-based. Particulars: THU 24 hours at clinically relevant concentrations, human lung epithelial cells, plaque assay and QRT-PCR.
For data set [2] the following is noted: cited from earlier work.
Data set [3] in a line: THU clinical pharmacokinetics, oral 750 mg in healthy volunteers. Particulars: male, human, in vivo.
Data set [4] deals with serum uridine levels. The experiment in a line: THU clinical pharmacodynamics: serum uridine and cytidine levels.
Experimental: Volunteers (3 males; 3 females) received a single THU dose of 750 mg 7 days apart, the 1st dose in a fasted state and the 2nd after a standard FDA meal.
For data set [5], the system named is cytidine analog deamination. The data set can be described thus: THU clinical pharmacodynamics: deamination of co-administered cytidine analogs.
In data set [6] the test system is host cell. As to conditions: clinically relevant concentrations, data from Xiong et al.; cited from earlier work.
The conditions of data set [7]: read-out: routine Cmax; clinical; cited from earlier work.
Data set [8] concerns CMV. Particulars: case series of renal transplantation patients; cited from earlier work.

With `O=C1NC(O)CCN1[C@@H]1O[C@H](CO)[C@@H](O)[C@H]1O` (stereo partly shown) [THU, tetrahydrouridine], the “coronavirus (VSV) replication” value in data set [1] is “inhibited coronavirus replication; also recorded: significantly inhibited”. In addition, in data set [2] (renal excretion, within 24 h), the “administered drug excreted through the kidneys within 24 h” value is reported as “approximately 50%”. Further, the “elimination within 48 hours” value in data set [2] (within 48 hours) was 100%. Also, in data set [3], the Cmax (commonly the peak of the concentration-time curve) is 2 µM to 8 µM and 500 ng/mL to 2000 ng/mL; the Tmax (commonly the time from dosing to the highest level) is about 3 h. Also, the “decrease of uridine availability to non-dividing cells” value in data set [4] (inhibition of 2 CDA-mediated uridine supply routes) is listed as at most 90%. The serum cytidine levels entry in data set [4] (single THU dose of 750 mg) is listed as “increasing”. Also, the “decrease in serum uridine levels” value in data set [4] (single THU dose of 750 mg, fasted and fed states, males and females) was 50-80% and 50-90%. For the same compound, the “reduction of uridine available for systemic salvage” value in data set [4] (standard, non-toxic doses) is “up to 90%”. Moreover, the “reduction in cytidine analog deamination” value in data set [5] is recorded as about 90%.
As for `C/C(O)=C(\C#N)C(=O)Nc1ccc(C(F)(F)F)cc1` [Teriflunomide, teriflunomide], in data set [6], the host cell cytotoxicity entry was “minimal”. The Cmax in data set [7] is 10 to 100 µM.
On to `Cc1oncc1C(=O)Nc1ccc(C(F)(F)F)cc1` [leflunomide], for which, in data set [8], the “clinical outcome of CMV infection” value is listed as “cleared virus and/or produced clinical improvement”.
